Laboratory results published in patent publication US20050287169A1, “Methods of use of genes of pyridoxal 5'-phosphate biosynthesis in Bacillus subtilis: avirulent strains for vaccines, and methods for identification of antibacterial agents” (priority 2003, published 2005).
One block for each molecule: values may come before it.

Assays:
[1] = test system: B. subtilis strain BB2253 (ΔpdxS); experiment: Growth of B. subtilis pdxS (yaaD) null mutant BB2253 with supplements; type: cell-based, Bacillus subtilis
Protocol: (§1) Bacterial strains, plasmids and culture media. B. subtilis strains were grown at 37° C. in TSS minimal medium with 0.5% glucose as the carbon source and 0.2% glutamate or NH4Cl as nitrogen source, in LB broth [Miller, 1972], or in DS nutrient broth medium [Fouet, 1990]. The same media with addition of agar were used for growth of bacteria on plates. LB broth or LB agar was used for growth of Escherichia coli strains. The following antibiotic concentrations were used as appropriate: chloramphenicol, 2.5 μg/ml; neomycin, 2.5-5 μg/ml; phleomycin, 0.25 μg/ml; spectinomycin, 50 μg/ml; or a combination of erythromycin, 0.5 μg/ml, and lincomycin, 12.5 μg/ml, for B. subtilis strains; ampicillin, 50-100 μg/ml; kanamycin, 25 μg/ml; spectinomycin, 50 μg/ml; or chloramphenicol, 10 μg/ml, for E. coli strains.
Construction of yaaD and yaaE null mutants. A deletion mutation within gene yaaD was created by cutting out the 606-bp fragment starting at the AatII site of pBB1181 (FIG. 2) and religating the remaining fragment after filling in its ends (the deletion endpoint, as determined by sequencing, was determined to be beyond the HindIII site, designed for this construct). In the resulting plasmid, pBB1185 (FIG. 2), the deletion was found not to alter the reading frame ofyaaD. pBB1218, a truncated version of pBB1185 (FIG. 2), was introduced by a single-crossover, homologous recombination event into the chromosome of strain SMY, selecting transformants for neomycin resistance. […] After growth of cells of the […] Pdx^− strain in the absence of neomycin, a Neos Pdx^− derivative was isolated. In this strain it was observed that the integrated pBB1218 had been excised from the chromosome and lost. Replacement of the wild-type yaaD gene by the ΔyaaD allele in strain BB2253 and excision of pBB1218 was confirmed by sizing PCR fragments generated from the yaaD locus and by probing for the loss of vector sequences.
Poor ability to utilize PN has been observed for uncharacterized B. subtilis mutants that appeared to require B6 vitamers for growth [Pflug, 1978]. B. subtilis cells apparently lack the pdxH-like gene and the corresponding pyridoxine 5′-phosphate oxidase activity [Pflug, 1983] required for conversion of pyridoxine to PLP.

[2] = test system: B. subtilis pdxT mutant (strains BB2256, BB2290); experiment: Growth of B. subtilis pdxT (yaaE) null mutant with supplements; type: cell-based, Bacillus subtilis
Protocol: as §1
A deletion-insertion mutation within the yaaE gene was constructed by replacing a 135-bp SphI-EcoRI fragment of pBB1213 (FIG. 2) with a 1.4-kb SphI-EcoRI ble cassette determining resistance to phleomycin, excised from pJPM136 [Belitsky, 1998]. The orientation of the ble gene in the resulting plasmid pBB1217 (ΔyaaE::ble; FIG. 2) coincided with that of the yaaE gene. Plasmid pBB1217 was introduced into B. subtilis SMY, and Phlr NeoS transformants arising from double crossover homologous recombination events were selected. Replacement of the chromosomal yaaE gene by the ΔyaaE::ble allele in strain BB2256 was confirmed by comparing sizes of PCR fragments from each of the wild-type and the mutant yaaE chromosomal loci.

[3] = test system: L. monocytogenes strain BL1 (ΔpdxST::spc); experiment: Growth of Listeria monocytogenes ΔpdxST::spc mutant BL1 with B6 vitamers; type: cell-based
Protocol: The resulting plasmid, pBB1212, was introduced into E. coli strain DW1030 containing conjugative plasmid pRK231.7, a broad host range plasmid of the IncP incompatibility group. pBB1212 was transferred from strain DW1030 (pBB1212) into L. monocytogenes cells by conjugation [Trieu-Cuot, 1987] at the temperature (30°) permissive for replication of pBB1212. The ΔpdxST::spc mutants, formed due to allelic exchange resulting from pBB1212 plasmid integration into the chromosome at the non-permissive temperature (41°) and excision at the permissive temperature, were obtained by screening colonies that lost the plasmid marker (chloramphenicol-resistance) and had retained resistance to spectinomycin. Replacement of the chromosomal pdxST locus by the ΔpdxST::spc allele in strain BL1 was confirmed by comparing the sizes of PCR fragments obtained by use of the wild-type and mutant pdxST chromosomal loci as templates.
These traits of the L. monocytogenes mutant are similar to those observed herein with the corresponding B. subtilis mutant.

[4] = test system: B. subtilis strain BB2267 (ΔpdxS ΔpdxZ::spc); experiment: Viability and growth of double pdxS pdxZ null mutant BB2267 with PLP precursors; type: cell-based, Bacillus subtilis; settings: for Viability of double mutant pdxS pdxZ (BB2267): DS nutrient broth or glucose-ammonium TSS medium
Text: Double pdxS pdxZ and pdxT pdxZ null mutants, defective both in de novo and salvage pathways of PLP synthesis, were obtained by introducing the pdxZ mutation into the chromosome of the pdxS or pdxT mutant cells by transformation.
Viability of cells of strain BB2295 carrying both pdxS and pdxZ mutations was also obtained in the absence of exogenous pyridoxal in the presence of xylose, by conditionally restoring the de novo pathway of PLP synthesis with a xylose-inducible form of the pdxS gene at an ectopic location, i.e., located elsewhere on the chromosome. These and similarly constructed conditional lethal strains can be used for vaccine development, to overcome possible lethality to the bacteria during culture of cells carrying double pdxS and pdxZ or double pdxT and pdxZ mutations.

[5] = test system: pdxS-lacZ fusion; experiment: Expression of pdxS-lacZ fusion (β-galactosidase activity); type: cell-based, Bacillus subtilis; settings: for β-Galactosidase activity: NH4Cl 10 mM, PL 100 μM, glucose-minimal medium
Text: Construction of transcriptional pdxS-lacZ (yaaD-lacZ) and pdxT-lacZ (yaaE-lacZ) fusions. The 1.35-kb BamHI-EcoRI fragment containing the entire intragenic region between dacA and pdxS, the entire pdxS gene, and the 5′-end of the pdxT gene (FIG. 2), was cut out from the PCR product generated using primers oBB120 and oBB121 and was cloned between the corresponding sites of pHK23 to construct pBB1254 (pdxST-lacZ; FIG. 2). Plasmid pHK23 containing an erythromycin resistance gene was derived from pLG103 [Belitsky et al., 2002, the entire contents of which are hereby incorporated by reference herein]. To construct plasmid pBB1259 with apdxS-lacZ fusion (FIG. 2), a 0.50-kb HindIII-EcoRI fragment containing the 3′-end of the pdxS gene and the 5′-end of thepdxT gene, was cut out of pBB1254, and the plasmid was blunt-ended and religated. To construct plasmid pBB1262 with a pdxT-lacZ fusion (FIG. 2), a 0.43-kb BamHI-BseRI fragment, containing the pdxS promoter and the 5′-part of the pdxS gene, was cut out of pBB1254, and the plasmid was blunt-ended and religated. Strains BB2277, 2279, and 2285 carrying thepdx-lacZ transcriptional fusions integrated at the amyE locus were isolated after transforming strain SMY with pBB1254, 1259, and 1262, respectively, selecting for resistance to erythromycin and screening for loss both of α-amylase production (Amy) and vector sequences as indications of a double crossover, homologous recombination event. The Amy phenotype was assayed using colonies grown overnight on Tryptose Blood Agar Base (Difco)-0.2% starch plates [Fouet, 1990].
Activity of β-galactosidase was determined as described previously [Belitsky, 1995]. Specific activities are expressed in Miller units (1000×OD420/min·ml·OD600) [Miller, 1972].
ApdxS-lacZ transcriptional fusion (plasmid pBB1259; FIG. 2) was constructed as described in Materials and Methods herein, and was integrated at the ectopic amyE locus of the B. subtilis chromosome (strain BB2279).
No effect of addition of excess pyridoxal (up to 1 mM) was observed on expression or on growth rate. Further, a moderate activation of expression (about 3-4-fold) was observed as a result of B6 limitation, for example, by growth of apdxT mutant in LB broth. This effect was not observed or was much less pronounced for the pdxT mutant using LB broth supplemented with excess PL or NH4Cl (FIG. 6), or in a wild type strain. Further, a 2-3-fold decrease in β-galactosidase activity was observed inpdxT mutant cells grown in TSS-glucose mediume with limiting concentrations of ammonium salts, and this decrease in pdxS-lacZ expression was prevented by the presence of PL (Table 5).

[6] = test system: B. subtilis strain BB2279 (wild-type); experiment: Growth rate of wild-type B. subtilis strain BB2279 carrying pdxS-lacZ; type: cell-based, Bacillus subtilis
Protocol: as §1
No effect of addition of excess pyridoxal (up to 1 mM) was observed on expression or on growth rate. Further, a moderate activation of expression (about 3-4-fold) was observed as a result of B6 limitation, for example, by growth of apdxT mutant in LB broth. This effect was not observed or was much less pronounced for the pdxT mutant using LB broth supplemented with excess PL or NH4Cl (FIG. 6), or in a wild type strain. […]

[7] = test system: Bacillus circulans pdxT mutant; settings: addition of pyridoxine; cited from earlier work
[8] = test system: G. stearothermophilus PdxT-His6 protein
[9] = target: T1, wild-type B. subtilis PdxS protein (Bacillus subtilis, UniProt P37527 2-294); experiment: co-purification on a Ni2+-affinity column from E. coli co-expressing both proteins (0.5 M NaCl, 0.4 M imidazole), SDS-PAGE
T1 construct: Co-expressed with PdxT-His6 in E. coli; also called YaaD; unmodified PdxS
T1 sequence (looked up): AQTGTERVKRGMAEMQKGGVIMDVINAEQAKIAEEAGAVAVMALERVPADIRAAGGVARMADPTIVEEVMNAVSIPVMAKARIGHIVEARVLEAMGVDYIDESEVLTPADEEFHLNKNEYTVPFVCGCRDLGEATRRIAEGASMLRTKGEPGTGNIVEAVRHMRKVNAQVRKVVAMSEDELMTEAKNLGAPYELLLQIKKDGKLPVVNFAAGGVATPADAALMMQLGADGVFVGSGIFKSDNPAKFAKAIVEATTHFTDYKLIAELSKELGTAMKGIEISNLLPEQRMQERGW
Protocol: pBAD derivatives were introduced into E. coli LMG194 (ara⁻) [Guzman, 1995] cells by transformation. The PdxS and/or PdxT proteins were induced in L-broth cultures (A₆₀₀=0.25−0.4) by addition of 0.2% L-arabinose and incubation for four hours. Cells were pelleted, were washed in 50 mM tris-Cl (pH 8.0)-5% glycerol and were disrupted by sonication in modified Novagen binding buffer (20 mM tris-Cl (pH 7.9)-500 mM NaCl-5 mM imidazole-5% glycerol) plus 1 mM phenylmethylsulfonyl fluoride and 0.1% Nonidet P-40. The sonicate was clarified by low speed centrifugation, and the supernatant was purified using a 2 ml Ni²⁺-column (Novagen) as described by the manufacturer. Buffers containing increasing concentrations of imidazole, from 30 mM to 1 M, were initially used for elution, and 485 mM and 385 mM imidazole were found suitable for elution of PdxS and PdxT proteins, respectively.
E. coli strains overproducing each of the wild-type version of the B. subtilis PdxS protein and the His₆-tagged version of PdxT were constructed, and were used for purification of the PdxT-His₆ protein by Ni²⁺-affinity chromatography.

[10] = strain BB2279, up to 1 mM pyridoxal
[11] = isoleucine 500 μg/ml, with or without pyridoxine

Molecule: Cc1ncc(COP(=O)(O)O)c(C=O)c1O [PLP, Pyridoxal 5′-phosphate]
- Growth of strain BB2253 in the presence of PLP [1]: Poor growth

Molecule: Cc1ncc(CO)c(C=O)c1O [pyridoxal]
- Growth rate ([2]; BB2290 pdxT, NH4Cl 10 mM, PL 100 μM, glucose-minimal medium): 60 min
- Growth rate of strain BB2256 in the presence of PL ([2]; minimal and rich media): restored to that of the wild type cell
- Restoration of growth of strain BL1 ([3]; 1 μM pyridoxal): fully restored
- Growth and viability of double mutant pdxS pdxZ ([4]; 1 mM pyridoxal): Growth and viability
- Pyridoxal concentration needed by the double mutant relative to that required for full growth of the pdxS mutant ([4]; 1 mM versus 1 μM): 1000 fold
- Viability of double mutant pdxS pdxZ (BB2267) ([4]; 1 μM pyridoxal): non-viable
- Growth of B. subtilis ΔpdxS ([1]; FIG. 3A, 0.01 μM pyridoxal): no growth observed
- Minimal concentration of pyridoxal supporting growth of B. subtilis ΔpdxS ([1]; FIG. 3A, growth rate a function of PL concentration up to 10 μM): 0.03 µM
- Growth defects of strain BB2253 in rich media on addition of pyridoxal ([1]; LB-broth, brain heart infusion medium or DS medium): relieved
- Restoration of growth of strain BB2253 ([1]; minimal media, 1 μM pyridoxal): fully restored
- β-Galactosidase activity ([5]; BB2279 wild-type): 190.4 Miller units
- β-Galactosidase activity ([5]; BB2290 pdxT): 142.4 Miller units
- Effect of PL on the 2-3-fold decrease in pdxS-lacZ expression in pdxT mutant cells ([5]; TSS-glucose medium, limiting ammonium salts): prevented
- Effect of excess pyridoxal on pdxS-lacZ expression [5, 10]: No effect
- Growth rate ([6]; BB2279 wild-type, NH4Cl 10 mM, PL 100 μM, glucose-minimal medium): 60 min
- Effect of excess pyridoxal on growth rate [6, 10]: No effect

Molecule: Cc1ncc(CO)c(CO)c1O [pyridoxine]
- Restoration of growth of strain BL1 ([3]; 100 μM pyridoxine): not at all
- Viability of double mutant pdxS pdxZ (BB2267) ([4]; 200 μM pyridoxine): non-viable
- Restoration of growth of strain BB2253 ([1]; 200 μM pyridoxine): only partially restored
- Remediation of growth defect of B. circulans pdxT mutant [7]: not remediated

Molecule: CC[C@H](C)[C@H](N)C(=O)O [isoleucine]
- Effect on growth of the pdxT mutant [2, 11]: No effect
- Effect on growth of the pdxS mutant [1, 11]: No effect

Molecule: Cc1ncc(CO)c(CN)c1O [Pyridoxamine]
- Effectiveness for growth of the mutant compared with pyridoxal ([1]; strain BB2253): several-fold less effective

Molecule: G. stearothermophilus PdxS containing a His6-tag at its C-terminus
- glutaminase activity [8]: It was found that the G. stearothermophilus PdxST complex has glutaminase activity

- binding result [9]: binds
B1: His6-tagged version of B. subtilis PdxT (enzyme, Bacillus subtilis)
chain: MLTIGVLGLQGAVREHIHAIEACGAAGLVVKRPEQLNEVDGLILPGGESTTMRRLIDTYQFMEPLREFAAQGKPMFGTCAGLIILAKEIAGSDNPHLGLLNVVVERNSFGRQVDSFEADLTIKGLDEPFTGVFIRAPHILEAGENVEVLSEHNGRIVAAKQGQFLGCSFHPELTEDHRVTQLFVEMVEEYKQKALVHHHHHH
notes: Overproduced in E. coli from pBB1252 (with PdxS) or pBB1256 (alone) and purified on a Ni2+ column; also called PdxT-His6; PdxT-H6
